Data published in patent publication US8586611B2 (priority 2005, dated 2013).
Read-outs that look alike come from different tables or passages of the source.

Assays:
Format in all cases: in vivo
[1] = tested on: Plasmopara viticola; test: Test B: grape downy mildew, spray 24 h after inoculation (disease rating, 100 = 100% disease control); conditions: for pest or weed control at 40 ppm: Plasmopara viticola, 144 h, tested at 40 ppm, read-out: Test B disease rating (100 = 100% disease control, 0 = no disease control)
Text: (§1) The test compounds were first dissolved in acetone in an amount equal to 3% of the final volume and then suspended at the desired concentration (in ppm) in acetone and purified water (50/50 mix by volume) containing 250 ppm of the surfactant Trem® 014 (polyhydric alcohol esters). The resulting test suspensions were then used in tests A-E. Spraying a 200 ppm test suspension to the point of run-off on the test plants was the equivalent of a rate of 500 g/ha.
Grape seedlings were inoculated with a spore suspension of Plasmopara viticola (the causal agent of grape downy mildew) and incubated in a saturated atmosphere at 20° C. for 24 h. After a short drying period, the test suspension was sprayed to the point of run-off on the grape seedlings and then moved to a growth chamber at 20° C. for 5 days, after which the test units were placed back into a saturated atmosphere at 20° C. for 24 h. Upon removal, disease ratings were made.
(§2) Results for Tests A-F are given in Table A. In the table, a rating of 100 indicates 100% disease control and a rating of 0 indicates no disease control (relative to the controls). A dash (-) indicates no test results.

[2] = tested on: Phytophthora infestans; test: whole plant or invertebrate; conditions: for Test C disease rating (100 = 100% disease control, 0 = no disease control): tomato late blight; for pest or weed control at 40 ppm: Phytophthora infestans, in Solanum lycopersicum, 144 h, read-out: Test C disease rating (100 = 100% disease control, 0 = no disease control)
[3] = tested on: Phytophthora infestans; test: whole plant or invertebrate; conditions: for Test D disease rating (100 = 100% disease control, 0 = no disease control): tomato late blight; for pest or weed control at 40 ppm: Phytophthora infestans, in Solanum lycopersicum, topical, 96 h, read-out: Test D disease rating (100 = 100% disease control, 0 = no disease control)
[4] = tested on: Erysiphe graminis f. sp. tritici; test: Test E: wheat powdery mildew, spray the day before inoculation (disease rating, 100 = 100% disease control); conditions: for pest or weed control at 40 ppm: Blumeria graminis, topical, 168 h, tested at 40 ppm, read-out: Test E disease rating (100 = 100% disease control, 0 = no disease control)
Text: as §1
The test suspension was sprayed to the point of run-off on wheat seedlings. The following day the seedlings were inoculated with a spore dust of Erysiphe graminis f. sp. tritici, (the causal agent of wheat powdery mildew) and incubated in a growth chamber at 20° C. for 7 days, after which disease ratings were made.
as §2

[5] = spray 24 h after inoculation, compounds without asterisk (not 40 or 10 ppm)
[6] = spray the day before inoculation, compounds without asterisk (not 40 or 10 ppm)
[7] = spray 17 h after inoculation, compounds without asterisk (not 40 or 10 ppm)
[8] = spray 24 h after inoculation, tested at 10 ppm
[9] = spray the day before inoculation, tested at 10 ppm
[10] = spray 17 h after inoculation, tested at 10 ppm
[11] = sprayed 24 h after inoculation, unmarked compounds (no asterisk, not 40 or 10 ppm)
[12] = sprayed the day before inoculation, unmarked compounds (no asterisk, not 40 or 10 ppm)
[13] = sprayed 17 h after inoculation, unmarked compounds (no asterisk, not 40 or 10 ppm)
[14] = sprayed the day before inoculation, 7 days at 20° C., unmarked compounds (no asterisk, not 40 or 10 ppm)
[15] = spray the day before inoculation

SMILES | Test B disease rating (100 = 100% disease control, 0 = no disease control) [1, 5] [%] | Test C disease rating (100 = 100% disease control, 0 = no disease control) [2, 6] [%] | Test D disease rating (100 = 100% disease control, 0 = no disease control) [3, 7] [%] | Test E disease rating (100 = 100% disease control, 0 = no disease control) [4, 6] [%] | other results
C[C@H](c1ccccc1)N(C)C(=O)c1csc(C2CCN(C(=O)Cn3cnc(C(F)(F)F)n3)CC2)n1 [compound 122] | 28 | 53 | 96 | 17 | –
C[C@H](c1ccccc1)N(C)C(=O)c1csc(C2CCN(C(=O)Cn3cc(Br)cn3)CC2)n1 [compound 71] | 34 | 74 | 0 | 0 | –
Cc1cc(C(F)(F)F)nn1CC(=O)N1CCC(c2noc(C(=O)N(C)[C@H](C)c3ccccc3)n2)CC1 [compound 216] | 72 | 95 | 16 | 0 | –
Cc1cc(C(F)(F)F)nn1CC(=O)N1CCC(c2nc(C(=O)N(C)C(C)(C)c3ccccc3)cs2)CC1 [compound 237] | 81 | 99 | 99 | 62 | –
Cc1cc(C(F)(F)F)nn1CC(=O)N1CCC(c2nc(C(=O)N(C)C3CCOc4ccccc43)cs2)CC1 (centres unmarked) [compound 179] | – | – | – | – | Test B disease rating (100 = 100% disease control, 0 = no disease control) [1, 8]: 96%; Test C disease rating (100 = 100% disease control, 0 = no disease control) [2, 9]: 100%; Test D disease rating (100 = 100% disease control, 0 = no disease control) [3, 10]: 87%; Test E disease rating (100 = 100% disease control, 0 = no disease control) [4, 9]: 0%
Cc1cc(C(F)(F)F)nn1CC(=O)N1CCC(c2nc(C(=O)N3CCC(C)(C)CC3)cs2)CC1 [compound 309] | – | – | – | – | Test B disease rating (100 = 100% disease control, 0 = no disease control) [1, 11]: 96; Test C disease rating (100 = 100% disease control, 0 = no disease control) [2, 12]: 100; Test D disease rating (100 = 100% disease control, 0 = no disease control) [3, 13]: 83; Test E disease rating (100 = 100% disease control, 0 = no disease control) [4, 14]: 0
Cc1ccc(C)c(CC(=O)N2CCC(c3nc(C(=O)N(C)C4CCSc5ccccc54)cs3)CC2)c1 (centres unmarked) [compound 136] | 77 | 100 | 80 | 0 | –
COC(=O)[C@H](c1ccccc1)N(C)C(=O)c1csc(C2CCN(C(=O)Cn3nc(C(F)(F)F)cc3C)CC2)n1 [compound 244] | 100 | 99 | 93 | 0 | –
C[C@H](c1ccccc1)N(C)C(=O)c1csc(C2CCN(C(=O)Cc3cc(C(C)(C)C)no3)CC2)n1 [compound 93] | 9 | 26 | 0 | 0 | –
Cc1cc(C(F)(F)F)nn1CC(=O)N1CCC(c2nc(C(=O)N(C)[C@@H]3CCCc4ccccc43)co2)CC1 [Compound 151, N-methyl-2-[1-[[5-methyl-3-(trifluoromethyl)-1H-pyrazol-1-yl]acetyl]-4-piperidinyl]-N-[(1R)-1,2,3,4-tetrahydro-1-naphthalenyl]-4-oxazolecarboxamide] | – | – | – | – | pest or weed control at 40 ppm ([1]; spray 24 h after inoculation): 99%; pest or weed control at 40 ppm [2]: 100%; pest or weed control at 40 ppm [3]: 99%; pest or weed control at 40 ppm [4, 15]: 0%
Cc1cccc(CC(=O)N2CCC(c3nc(C(=O)N(C)C(C)c4ncc(Cl)cc4Cl)cs3)CC2)c1 (centres unmarked) [compound 61] | 2 | 69 | 0 | 0 | –
Cc1cc(C(F)(F)F)nn1CC(=O)N1CCC(c2nc(C(=O)N3CCCC(C)(C)C3)cs2)CC1 [compound 313] | – | – | – | – | Test B disease rating (100 = 100% disease control, 0 = no disease control) [1, 11]: 98; Test C disease rating (100 = 100% disease control, 0 = no disease control) [2, 12]: 99; Test D disease rating (100 = 100% disease control, 0 = no disease control) [3, 13]: 92; Test E disease rating (100 = 100% disease control, 0 = no disease control) [4, 14]: 0
Cc1cc(C(F)(F)F)nn1CC(=O)N1CCC(c2nc(C(=O)N(C)C3CCC(=O)c4ccccc43)cs2)CC1 (centres unmarked) [Compound 211, N-methyl-2-[1-[[5-methyl-3-(trifluoromethyl)-1H-pyrazol-1-yl]acetyl]-4-piperidinyl]-N-(1,2,3,4-tetrahydro-4-oxo-1-naphthalenyl)-4-thiazolecarboxamide] | – | – | – | – | pest or weed control at 40 ppm ([1]; spray 24 h after inoculation): 99%; pest or weed control at 40 ppm [2]: 100%; pest or weed control at 40 ppm [3]: 99%; pest or weed control at 40 ppm [4, 15]: 0%
Cc1cc(C(F)(F)F)nn1CC(=O)N1CCC(c2nc(C(=O)N(C)C3COc4ccccc43)cs2)CC1 (centres unmarked) [compound 184] | – | – | – | – | Test B disease rating (100 = 100% disease control, 0 = no disease control) [1, 8]: 77%; Test C disease rating (100 = 100% disease control, 0 = no disease control) [2, 9]: 99%; Test D disease rating (100 = 100% disease control, 0 = no disease control) [3, 10]: 76%; Test E disease rating (100 = 100% disease control, 0 = no disease control) [4, 9]: 0%
Cc1cc(C(F)(F)F)nn1CC(=O)N1CCC(c2nc(C(=O)N(C)C3CCCC4CCCCC43)cs2)CC1 (mixture of isomers) [compound 254] | – | – | – | – | Test B disease rating (100 = 100% disease control, 0 = no disease control) [1, 11]: 95; Test C disease rating (100 = 100% disease control, 0 = no disease control) [2, 12]: 99; Test D disease rating (100 = 100% disease control, 0 = no disease control) [3, 13]: 99; Test E disease rating (100 = 100% disease control, 0 = no disease control) [4, 14]: 0
COc1ccccc1NC(=O)N1CCC(c2nc(C(=O)N(C)[C@H](C)c3ccccc3)co2)CC1 [compound 157] | 63 | 100 | 91 | 0 | –
Cc1cc(C(F)(F)F)nn1CC(=O)N1CCC(c2nc(C(=O)N(C)C3CCCc4c(O)cccc43)cs2)CC1 (centres unmarked) [compound 189] | 93 | 100 | 99 | 0 | –
